Earlier results, collected in US20190202814A1, “PROCESSES FOR PREPARATION OF EMPAGLIFLOZIN” (CADILA HEALTHCARE LIMITED, priority 2015, published 2019).

What was measured:
[1] = crystalline solid

OC[C@H]1O[C@@H](c2ccc(Cl)c(Cc3ccc(O[C@H]4CCOC4)cc3)c2)[C@H](O)[C@@H](O)[C@@H]1O [Empagliflozin, (1S)-1,5-anhydro-1-{4-chloro-3-(4-[(3S)-tetrahydrofuran-3-yloxy]benzyl}phenyl)-D-glucitol]
hygroscopicity [1]: non-hygroscopic | solubility in acetonitrile (acetonitrile): very slightly soluble | solubility in ethanol (ethanol): very slightly soluble | solubility in methanol (methanol): sparingly soluble | solubility in toluene (toluene): practically insoluble | solubility in water (water): very slightly soluble
